In EP0011828A1, “Pharmaceutical combinations including hydantoin derivatives, pharmaceutical formulations containing the combinations and methods of making the formulations” (THE WELLCOME FOUNDATION LIMITED, priority 1978, dated 1980):
“Also recorded” adds a separate entry of the source.

What was measured:
[1] = system: rabbit platelet-rich plasma (PRP); assay: Arachidonic acid-induced aggregation in rabbit platelet-rich plasma, Born-type aggregometer; type: cell-based
Description: (§1) Aggregation was induced in rabbit platelet-rich plasma (PRP) by addition of arachidonic acid, and monitored in a Born-type aggregometer. A dose of dipyridamole was selected which caused no inhibition of aggregation when added to the PRP 2 minutes prior to the addition of arachidonic acid. The active compound when added to the PRP 1 minute prior to the addition of arachidonic acid caused a dose-related inhibition of aggregation. The percentage inhibition caused by the active compound was compared in the presence and absence of the selected dose of dipyridamole.

[2] = system: human PRP; assay: ADP-induced aggregation of human PRP, potentiation by theophylline; type: cell-based
Description: [The source words this procedure for another species and says it was used here with some conditions changed.] as §1
The experiment of Example 12 was repeated using theophylline, another inhibitor of phosphodiesterase, in place of the dipyridamole. […]

[3] = system: platelet aggregation; assay: Inhibition of platelet aggregation (general statement); type: cell-based
[4] = system: pentagastrin-induced gastric acid secretion; details: rat, in vivo; cited from earlier work
[5] = system: aspirin- induced gastric lesions; details: rats; cited from earlier work
[6] = system: histamine-induced broncho-constriction; details: cited from earlier work
[7] = system: human PRP; assay: Platelet aggregation in human PRP, potentiation by dipyridamole; type: cell-based; details: dipyridamole combined with 5-(6-carboxyhexyl)-1-(3-hydroxy-3-cyclohexylpropyl)hydantoin

SMILES: O=C(O)CCCCCCC1C(=O)NC(=O)N1CCC(O)C1CCCCC1 (stereo not shown) [5-(6-carboxyhexyl)-1-(3-hydroxy-3-cyclohexylpropyl)hydantoin]
- inhibition at 0.05 µg/mL ([1]; Oryctolagus cuniculus, active compound 50 ng/ml alone, added 1 minute before arachidonic acid, read-out: Percentage Inhibition): 37%
- inhibition at 0.075 µg/mL ([1]; Oryctolagus cuniculus, active compound 75 ng/ml alone, read-out: Percentage Inhibition): 66%
- inhibition at 0.1 µg/mL ([1]; Oryctolagus cuniculus, active compound 100 ng/ml alone, read-out: Percentage Inhibition): 100%
- Percentage Inhibition ([1]; active compound 50 ng/ml with Dipyridamole 50 µg/ml): 77
- inhibition of rabbit platelet aggregation (potency in words) ([1]; rabbit platelets, active compound alone): not a particularly potent inhibiton of rabbit platelet aggregation
- inhibition at 0.0005 µg/mL ([2]; Homo sapiens, active compound 0.5 ng/ml alone, read-out: Percentage Inhibition): 19%
- inhibition at 0.001 µg/mL ([2]; Homo sapiens, active compound 1 ng/ml alone, read-out: Percentage Inhibition): 55%
- Percentage Inhibition ([2]; active compound 0.5 ng/ml with Theophylline 20 µg/ml): 51
- Percentage Inhibition ([2]; active compound 1 ng/ml with Theophylline 20 µg/ml): 70
- inhibitors of platelet aggregation (activity in words) [3]: especially active

SMILES: CCCCCC(=O)CCN1C(=O)N(C)C(=O)C1CCCCCCC(=O)O (stereo not shown) [5-(6-carboxyhexyl)-3-methyl-1-(3-oxo-octyl)hydantoin]
- inhibition of pentagastrin-induced gastric acid secretion [4]: inhibits pentagastrin-induced gastric acid secretion
- formation of aspirin-induced gastric lesions [5]: reduces the formation of aspirin- induced gastric lesions in rats

SMILES: CCCCCC(=O)CCN1C(=O)NC(=O)C1CCCCCCC(=O)O (stereo not shown) [5-(6-carboxyhexyl)-1-(3-oxo-octyl)hydantoin]
- inhibition of pentagastrin-induced gastric acid secretion [4]: inhibits pentagastrin-induced gastric acid secretion
- formation of aspirin-induced gastric lesions [5]: reduces the formation of aspirin- induced gastric lesions in rats

SMILES: O=C(O)CCCCCCC1C(=O)NC(=O)N1CCCCOc1ccccc1 (stereo not shown) [5-(6-carboxyhexyl)-1-(4-phenoxybutyl) hydantoin]
- inhibition of pentagastrin-induced gastric acid secretion [4]: inhibits pentagastrin-induced gastric acid secretion
- formation of aspirin-induced gastric lesions [5]: reduces the formation of aspirin- induced gastric lesions in rats

SMILES: Cn1c(=O)c2[nH]cnc2n(C)c1=O [Theophylline, 3,7-dihydro-1,3-dimethyl-1H-purine-2,6-dione, reference compound]
- inhibition at 20 µg/mL ([2]; Homo sapiens, Theophylline 20 µg/ml alone, read-out: Percentage Inhibition): 7%
- potentiation of the inhibitory effect of the active compound on ADP - induced aggregation ([2]; theophylline combined with 5-(6-carboxyhexyl)-1-(3-hydroxy-3-cyclohexylpropyl)hydantoin, human PRP): found to potentiate the inhibitory effect

SMILES: O=C(O)CCCC=CCC1C(=O)NC(=O)N1CCC(O)C1CCCCC1 (stereo not shown) [5-(6-carboxyhex-2-enyl)-1-(3-hydroxy-3-cyclohexylpropyl)hydantoin]
- inhibitors of platelet aggregation (activity in words) [3]: especially active

SMILES: CCCCC(C)(C)C(O)CCN1C(=O)NC(=O)C1CCCCCCC(=O)O (stereo not shown) [5-(6-carboxyhexyl)-1-(3-hydroxy-4,4-dimethyloctyl) hydantoin]
- antagonism of histamine-induced broncho-constriction [6]: antagonises histamine-induced broncho-constriction

SMILES: CCCCCC(O)CCN1C(=O)NC(=O)C1CCCCCCC(=O)O (stereo not shown) [5-(6-carlJoxy-hexyl)-1-(3-hydroxyoctyl)-hydantoin]
- inhibition of pentagastrin-induced gastric acid secretion [4]: inhibits pentagastrin-induced gastric acid secretion
- formation of aspirin-induced gastric lesions [5]: reduces the formation of aspirin- induced gastric lesions in rats

SMILES: OCCN(CCO)c1nc(N2CCCCC2)c2nc(N(CCO)CCO)nc(N3CCCCC3)c2n1 [Dipyridamole, 2,2', 2",2'"-(4,8-dipiperidinopy-rimido [5,4-d]pyrimidine-2,6-diyldinitrilo)tetraethanol, reference compound]
- inhibition at 50 µg/mL ([1]; Oryctolagus cuniculus, Dipyridamole 50 µg/ml alone, added 2 minutes before arachidonic acid, read-out: Percentage Inhibition): 0%
- potentiation of the inhibitory activity of the active compound on platelet aggregation ([1]; dipyridamole combined with 5-(6-carboxyhexyl)-1-(3-hydroxy-3-cyclohexylpropyl)hydantoin, rabbit PRP): inhibitory effect of a dose of the active compound in the presence of dipyridamole is approximately equivalent to that caused by twice that dose of the active compound alone; also recorded: produced a potentiation of the anti-aggrcgatory effect of the active compound
- potentiation of the anti-aggregatory effect of the active compound [7]: a similar potentiation was observed; also recorded: produced a potentiation of the anti-aggrcgatory effect of the active compound
